The record followed here is patent US9365562B2, “1,3 substituted azetidine PDE10 inhibitors” (Merck Sharp & Dohme Corp., priority 2011, dated 2016).

The experiment concerns the target human PDE10A2 (Homo sapiens (Human), UniProt Q9Y233). In words: PDE10 fluorescence polarization (IMAP FP) inhibition assay. In kind it is biochemical. Particulars: apparent inhibition constant, FAM-labeled cAMP substrate 50 nM, room temperature. Put shortly: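 Cytoplasmic lysate of AD293 cells transiently expressing human PDE10A2, enzyme preincubated 60 min at room temperature with compounds (1% DMSO), then 50 nM FAM-cAMP added for 60 min. Buffer 10 mM Tris HCl pH 7.2, 10 mM MgCl2, 1 mM DTT; IMAP binding reagent stop, FP read after ≥1 h.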
In general terms: Fluorescence polarisation rises when a labelled molecule tumbles more slowly, as on binding a larger partner.

SMILES strings stand for the structures.

Chain of human PDE10A2 (Q9Y233 267-1055): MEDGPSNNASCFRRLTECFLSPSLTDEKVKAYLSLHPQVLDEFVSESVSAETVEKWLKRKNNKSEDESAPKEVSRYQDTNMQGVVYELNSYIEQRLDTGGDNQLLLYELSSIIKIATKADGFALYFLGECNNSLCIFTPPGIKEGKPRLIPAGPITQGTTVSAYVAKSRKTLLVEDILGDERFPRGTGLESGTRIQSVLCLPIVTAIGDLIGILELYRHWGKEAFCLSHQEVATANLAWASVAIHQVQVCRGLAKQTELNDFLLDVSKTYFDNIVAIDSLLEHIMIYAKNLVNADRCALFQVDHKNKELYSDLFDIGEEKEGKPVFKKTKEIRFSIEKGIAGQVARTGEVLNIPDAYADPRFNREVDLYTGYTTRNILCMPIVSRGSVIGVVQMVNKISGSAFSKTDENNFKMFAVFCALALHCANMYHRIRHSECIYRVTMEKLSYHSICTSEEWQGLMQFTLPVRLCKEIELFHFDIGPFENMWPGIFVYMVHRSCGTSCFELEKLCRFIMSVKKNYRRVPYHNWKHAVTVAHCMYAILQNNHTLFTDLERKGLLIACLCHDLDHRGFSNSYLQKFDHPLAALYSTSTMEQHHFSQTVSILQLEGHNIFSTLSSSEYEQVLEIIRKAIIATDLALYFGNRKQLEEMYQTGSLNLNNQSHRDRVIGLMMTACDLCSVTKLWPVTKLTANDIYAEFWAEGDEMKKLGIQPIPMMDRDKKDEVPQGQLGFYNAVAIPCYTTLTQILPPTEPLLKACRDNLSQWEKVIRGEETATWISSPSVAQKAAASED

For the compound `Cc1ccc(-c2cc(N3CC(c4nc5ccccc5n4C)C3)nc(C)n2)nc1` [Example 94, 1-methyl-2-(1-(2-methyl-6-(5-methylpyridin-2-yl)pyrimidin-4-yl)azetidin-3-yl)-1H-benzo[d]imidazole], the Ki stood at 1 nM.
On to `COc1cnn(-c2cc(N3CC(c4nc5ccccc5n4C)C3)nc(C)n2)c1` [Example 18, 2-(1-(6-(4-methoxy-1H-pyrazol-1-yl)-2-methylpyrimidin-4-yl)azetidin-3-yl)-1-methyl-1H-benzo[d]imidazole], for which the Ki came out at 3.2 nM.
For `Cc1nc(N2CC(c3nc4ccccc4n3C)C2)cc(-n2cc(C)c(C)n2)n1` [Example 8, 2-(1-(6-(3,4-dimethyl-1H-pyrazol-1-yl)-2-methylpyrimidin-4-yl)azetidin-3-yl)-1-methyl-1H-benzo[d]imidazole], the Ki came out at 0.63 nM.
As to `Cc1cnn(-c2cc(N3CC(c4nc5ccccc5n4C)C3)nc(C(F)(F)F)n2)n1` [Example 31, 1-methyl-2-(1-(6-(4-methyl-2H-1,2,3-triazol-2-yl)-2-(trifluoromethyl)pyrimidin-4-yl)azetidin-3-yl)-1H-benzo[d]imidazole], the Ki was found to be 1.2 nM.
In the case of `Cc1nc(N2CC(c3nc4ccccc4n3C)C2)cc(-n2nc(C)nc2C[C@H](C)O)n1` [Example 40, (S)-1-(3-methyl-1-(2-methyl-6-(3-(1-methyl-1H-benzo[d]imidazol-2-yl)azetidin-1-yl)pyrimidin-4-yl)-1H-1,2,4-triazol-5-yl)propan-2-ol] it was 2 nM; in that of `CCCc1nc(C)nn1-c1cc(N2CC(c3nc4ccccc4n3C)C2)nc(C)n1` [Example 38, 1-methyl-2-(1-(2-methyl-6-(3-methyl-5-propyl-1H-1,2,4-triazol-1-yl)pyrimidin-4-yl)azetidin-3-yl)-1H-benzo[d]imidazole], 0.41 nM; in that of `Cc1nc(-c2ccccc2)cc(N2CC(c3nc4ccccc4n3C)C2)n1` [Example 88, 1-methyl-2-(1-(2-methyl-6-phenylpyrimidin-4-yl)azetidin-3-yl)-1H-benzo[d]imidazole], 63 nM.
As for `Cc1cnn(-c2cc(N3CC(c4nc5ccccc5n4C)C3)nc(C)n2)n1` [Example 28, 1-methyl-2-(1-(2-methyl-6-(4-methyl-2H-1,2,3-triazol-2-yl)pyrimidin-4-yl)azetidin-3-yl)-1H-benzo[d]imidazole], the Ki turned out to be 1.7 nM.
Take `Cc1cnn(-c2cc(N3CC(c4nc5ccccc5n4C)C3)nc(C3CC3)n2)c1` [Example 6, 2-(1-(2-cyclopropyl-6-(4-methyl-1H-pyrazol-1-yl)pyrimidin-4-yl)azetidin-3-yl)-1-methyl-1H-benzo[d]imidazole]: the Ki was 0.53 nM.
As to `Cc1nc(C)n(-c2cc(N3CC(c4nc5ccccc5n4C)C3)nc(OCc3ccon3)n2)n1` [Example 74, 3-(((4-(3,5-dimethyl-1H-1,2,4-triazol-1-yl)-6-(3-(1-methyl-1H-benzo[d]imidazol-2-yl)azetidin-1-yl)pyrimidin-2-yl)oxy)methyl)isoxazole], the Ki came out at 0.49 nM.
For the compound `COC(=O)CCc1nc(C)nn1-c1cc(N2CC(c3nc4ccccc4n3C)C2)nc(C)n1` [Example 43, methyl 3-(3-methyl-1-(2-methyl-6-(3-(1-methyl-1H-benzo[d]imidazol-2-yl)azetidin-1-yl)pyrimidin-4-yl)-1H-1,2,4-triazol-5-yl)propanoate], the Ki turned out to be 0.49 nM.
As to `CCn1c(C2CN(c3cc(-n4nc(C)nc4C)nc(C)n3)C2)nc2ccccc21` [Example 114, 2-(1-(6-(3,5-Dimethyl-1H-1,2,4-triazol-1-yl)-2-methylpyrimidin-4-yl)azetidin-3-yl)-1-ethyl-1H-benzo[d]imidazole], the Ki is 5.9 nM.
For `Cc1nc(N2CC(c3nc4ccccc4n3C)C2)cc(-n2nc(C)nc2C2CC2)n1` [Example 36, 2-(1-(6-(5-cyclopropyl-3-methyl-1H-1,2,4-triazol-1-yl)-2-methylpyrimidin-4-yl)azetidin-3-yl)-1-methyl-1H-benzo[d]imidazole], the Ki came out at 4.5 nM.
Consider `Cc1nc(N2CC(c3nc4ccccc4n3C)C2)cc(-n2nc(C)nc2C2CC(=O)N(C)C2)n1` (centres unmarked) [Example 47, 1-methyl-4-(3-methyl-1-(2-methyl-6-(3-(1-methyl-1H-benzo[d]imidazol-2-yl)azetidin-1-yl)pyrimidin-4-yl)-1H-1,2,4-triazol-5-yl)pyrrolidin-2-one], for which the Ki is 3.9 nM.
Consider `Cc1ccc(-c2cc(N3CC(c4nc5ccccc5n4C)C3)nc(C)n2)c(F)n1` [Example 85, 2-(1-(6-(2-fluoro-6-methylpyridin-3-yl)-2-methylpyrimidin-4-yl)azetidin-3-yl)-1-methyl-1H-benzo[d]imidazole], for which the Ki came to 8 nM.
On to `CCCn1c(C2CN(c3cc(-n4nc(C)nc4C)nc(C)n3)C2)nc2ccccc21` [Example 118, 2-(1-(6-(3,5-dimethyl-1H-1,2,4-triazol-1-yl)-2-methylpyrimidin-4-yl)azetidin-3-yl)-1-propyl-1H-benzo[d]imidazole], for which the Ki was determined as 13 nM.
Consider `Cc1nc(N2CC(c3nc4ccccc4n3CCCC#N)C2)cc(-n2nc(C)nc2C)n1` [Example 121, 4-(2-(1-(6-(3,5-dimethyl-1H-1,2,4-triazol-1-yl)-2-methylpyrimidin-4-yl)azetidin-3-yl)-1H-benzo[d]imidazol-1-yl)butanenitrile], for which the Ki worked out at 9.5 nM.
Turning to `Cc1nc(C)n(-c2cc(N3CC(c4nc5ccccc5n4C)C3)nc(OCc3ccnn3C)n2)n1` [Example 73, 2-(1-(6-(3,5-dimethyl-1H-1,2,4-triazol-1-yl)-2-((1-methyl-1H-pyrazol-5-yl)methoxy)pyrimidin-4-yl)azetidin-3-yl)-1-methyl-1H-benzo[d]imidazole], the Ki was 0.13 nM.
`COCc1nc(C)nn1-c1cc(N2CC(c3nc4ccccc4n3C)C2)nc(C2CC2)n1` [Example 65, 2-(1-(2-cyclopropyl-6-(5-(methoxymethyl)-3-methyl-1H-1,2,4-triazol-1-yl)pyrimidin-4-yl)azetidin-3-yl)-1-methyl-1H-benzo[d]imidazole]: the Ki is 2.5 nM.
Turning to `Cc1nc(N2CC(c3nc4ccccc4n3C)C2)cc(-n2cc(C(F)(F)F)cn2)n1` [Example 16, 1-methyl-2-(1-(2-methyl-6-(4-(trifluoromethyl)-1H-pyrazol-1-yl)pyrimidin-4-yl)azetidin-3-yl)-1H-benzo[d]imidazole], the Ki stood at 2.7 nM.
For `Cc1nc(N2CC(c3nc4ccccc4n3C)C2)cc(-n2nc(C)nc2C(C)C)n1` [Example 39, 2-(1-(6-(5-isopropyl-3-methyl-1H-1,2,4-triazol-1-yl)-2-methylpyrimidin-4-yl)azetidin-3-yl)-1-methyl-1H-benzo[d]imidazole] the value was 3.1 nM; for `Cc1nc(-c2ccc(Cl)cn2)cc(N2CC(c3nc4ccccc4n3C)C2)n1` [Example 99, 2-(1-(6-(5-chloropyridin-2-yl)-2-methylpyrimidin-4-yl)azetidin-3-yl)-1-methyl-1H-benzo[d]imidazole], 1.1 nM; for `CCOC(=O)Cc1nc(C)nn1-c1cc(N2CC(c3nc4ccccc4n3C)C2)nc(C)n1` [Example 44, ethyl 2-(3-methyl-1-(2-methyl-6-(3-(1-methyl-1 benzo[d]imidazol-2-yl)azetidin-1-yl)pyrimidin-4-yl)-1H-1,2,4-triazol-5-yl)acetate], 2.6 nM.
As to `COc1nc(N2CC(c3nc4ccccc4n3C)C2)cc(-n2nc(C)nc2C2CC2)n1` [Example 63, 2-(1-(6-(5-cyclopropyl-3-methyl-1H-1,2,4-triazol-1-yl)-2-methoxypyrimidin-4-yl)azetidin-3-yl)-1-methyl-1H-benzo[d]imidazole], the Ki came to 1.8 nM.
In the case of `Cc1nc(N2CC(c3nc4ccccc4n3C)C2)cc(-n2nc(C)nc2C[C@@H](C)O)n1` [Example 41, (R)-1-(3-methyl-1-(2-methyl-6-(3-(1-methyl-1H-benzo[d]imidazol-2-yl)azetidin-1-yl)pyrimidin-4-yl)-1H-1,2,4-triazol-5-yl)propan-2-ol], the Ki was determined as 1 nM.
In the case of `Cc1nc(C)n(-c2cc(N3CC(c4nc5ccccc5n4C)C3)nc(CC#N)n2)n1` [Example 25, 2-(4-(3,5-dimethyl-1H-1,2,4-triazol-1-yl)-6-(3-(1-methyl-1H-benzo[d]imidazol-2-yl)azetidin-1-yl)pyrimidin-2-yl)acetonitrile] it was 1.3 nM; in that of `Cc1nc(N2CC(c3nc4ccccc4n3C)C2)cc(-n2nncc2C)n1` [Example 27, 1-methyl-2-(1-(2-methyl-6-(5-methyl-1H-1,2,3-triazol-1-yl)pyrimidin-4-yl)azetidin-3-yl)-1H-benzo[d]imidazole], 8.5 nM; in that of `Cc1nc(N2CC(c3nc4ccccc4n3C)C2)cc(-n2nc(C)c(C)c2C)n1` [Example 9, 1-methyl-2-(1-(2-methyl-6-(3,4,5-trimethyl-1H-pyrazol-1-yl)pyrimidin-4-yl)azetidin-3-yl)-1H-benzo[d]imidazole], 0.93 nM.
Regarding `Cc1nc(-c2ccc(C#N)cn2)cc(N2CC(c3nc4ccccc4n3C)C2)n1` [Example 103, 6-(2-methyl-6-(3-(1-methyl-1H-benzo[d]imidazol-2-yl)azetidin-1-yl)pyrimidin-4-yl)nicotinonitrile], the Ki is 2.4 nM.
For the compound `Cc1nc(N2CC(c3nc4ccccc4n3C)C2)cc(-n2nc(C)nc2Cc2cc(F)ccc2F)n1` [Example 57, 2-(1-(6-(5-(2,5-difluorobenzyl)-3-methyl-1H-1,2,4-triazol-1-yl)-2-methylpyrimidin-4-yl)azetidin-3-yl)-1-methyl-1H-benzo[d]imidazole], the Ki turned out to be 0.065 nM.
With `COCc1nc(C)nn1-c1cc(N2CC(c3nc4ccccc4n3C)C2)nc(C(F)(F)F)n1` [Example 66, 2-(1-(6-(5-(methoxymethyl)-3-methyl-1H-1,2,4-triazol-1-yl)-2-(trifluoromethyl)pyrimidin-4-yl)azetidin-3-yl)-1-methyl-1H-benzo[d]imidazole], the Ki turned out to be 0.94 nM.
For `Cc1nc(-c2cccnc2C)cc(N2CC(c3nc4ccccc4n3C)C2)n1` [Example 80, 1-Methyl-2-(1-(2-methyl-6-(2-methylpyridin-3-yl)pyrimidin-4-yl)azetidin-3-yl)-1H-benzo[d]imidazole], the Ki was over 100 nM.
